Experimental data reported in the NIST ThermoML archive (doi:10.1016/j.jct.2017.08.035).

Test: wn = mass fraction of the nth substance listed
Conditions: for surface tension liquid-gas: Maximal bubble pressure; for mass density: 100 kPa, Liquid, Vibrating tube method

CCn1cc[n+](CCOC)c1.O=S(=O)([O-])C(F)(F)F + O
Conditions | mass density, w2 = 0.00185 [kg/m3] | mass density, w2 = 0.0038 [kg/m3] | mass density, w2 = 0.00537 [kg/m3] | mass density, w2 = 0.00665 [kg/m3] | mass density, w2 = 0.00891 [kg/m3] | surface tension liquid-gas, w2 = 0.0016 [mN/m] | surface tension liquid-gas, w2 = 0.00284 [mN/m] | surface tension liquid-gas, w2 = 0.00419 [mN/m] | surface tension liquid-gas, w2 = 0.0056 [mN/m] | surface tension liquid-gas, w2 = 0.007 [mN/m]
298.15 K | 1355.32 | 1354.72 | 1354.29 | 1353.79 | 1353.19 | 38.2 | 38.4 | 38.6 | 38.8 | 39
303.15 K | 1351.04 | 1350.44 | 1350 | 1349.52 | 1348.89 | 37.9 | 38.1 | 38.3 | 38.4 | 38.6
308.15 K | 1346.78 | 1346.18 | 1345.72 | 1345.26 | 1344.62 | 37.6 | 37.8 | 37.9 | 38.1 | 38.3
313.15 K | 1342.54 | 1341.93 | 1341.46 | 1341.03 | 1340.36 | 37.3 | 37.5 | 37.7 | 37.9 | 38.1
318.15 K | 1338.31 | 1337.7 | 1337.22 | 1336.82 | 1336.12 | 37.1 | 37.3 | 37.5 | 37.7 | 37.9
323.15 K | 1334.1 | 1333.49 | 1333 | 1332.62 | 1331.9 | 36.8 | 37 | 37.2 | 37.5 | 37.7
328.15 K | 1329.9 | 1329.3 | 1328.79 | 1328.44 | 1327.7 | 36.5 | 36.7 | 36.9 | 37.1 | 37.3
333.15 K | 1325.72 | 1325.11 | 1324.6 | 1324.26 | 1323.51 | 36.3 | 36.5 | 36.7 | 36.9 | 37.1
338.15 K | 1321.54 | 1320.94 | 1320.43 | 1320.1 | 1319.34 | 36 | 36.2 | 36.3 | 36.5 | 36.7

CC(=O)[O-].CCn1cc[n+](CCOC)c1 [1-ethyl-3-(2-methoxyethyl)imidazolium acetate] + O
Conditions | mass density, w2 = 0.00822 [kg/m3] | mass density, w2 = 0.00966 [kg/m3] | mass density, w2 = 0.01112 [kg/m3] | mass density, w2 = 0.01254 [kg/m3] | mass density, w2 = 0.01399 [kg/m3] | surface tension liquid-gas, w2 = 0.00188 [mN/m] | surface tension liquid-gas, w2 = 0.0034 [mN/m] | surface tension liquid-gas, w2 = 0.00488 [mN/m] | surface tension liquid-gas, w2 = 0.00638 [mN/m] | surface tension liquid-gas, w2 = 0.00792 [mN/m]
298.15 K | 1193.01 | 1193.1 | 1193.21 | 1193.32 | 1193.44 | 46.3 | 46.5 | 46.7 | 47 | 47.3
303.15 K | 1189.68 | 1189.78 | 1189.89 | 1189.98 | 1190.11 | 46 | 46.2 | 46.4 | 46.7 | 47
308.15 K | 1186.36 | 1186.45 | 1186.56 | 1186.66 | 1186.79 | 45.7 | 45.9 | 46.2 | 46.4 | 46.7
313.15 K | 1183.05 | 1183.14 | 1183.25 | 1183.35 | 1183.48 | 45.4 | 45.7 | 45.9 | 46.1 | 46.4
318.15 K | 1179.76 | 1179.85 | 1179.96 | 1180.06 | 1180.19 | 45.1 | 45.3 | 45.6 | 45.8 | 46.1
323.15 K | 1176.48 | 1176.57 | 1176.68 | 1176.78 | 1176.91 | 44.8 | 45.1 | 45.3 | 45.5 | 45.8
328.15 K | 1173.21 | 1173.31 | 1173.42 | 1173.52 | 1173.65 | 44.6 | 44.9 | 45.1 | 45.3 | 45.6
333.15 K | 1169.97 | 1170.06 | 1170.17 | 1170.27 | 1170.4 | 44.4 | 44.7 | 44.8 | 45.1 | 45.3
338.15 K | 1166.74 | 1166.82 | 1166.93 | 1167.03 | 1167.16 | 44.2 | 44.5 | 44.6 | 44.9 | 45.1

CCn1cc[n+](CCOC)c1.N#C[N-]C#N [1-ethyl-3-(2-methoxyethyl)imidazolium dicyanamide] + O
Conditions | mass density, w2 = 0.00148 [kg/m3] | mass density, w2 = 0.00277 [kg/m3] | mass density, w2 = 0.00434 [kg/m3] | mass density, w2 = 0.0055 [kg/m3] | mass density, w2 = 0.00719 [kg/m3] | surface tension liquid-gas, w2 = 0.00031 [mN/m] | surface tension liquid-gas, w2 = 0.00175 [mN/m] | surface tension liquid-gas, w2 = 0.00317 [mN/m] | surface tension liquid-gas, w2 = 0.00461 [mN/m] | surface tension liquid-gas, w2 = 0.00609 [mN/m]
298.15 K | 1113.35 | 1113.18 | 1112.96 | 1112.77 | 1112.46 | 44.7 | 44.9 | 45.3 | 45.6 | 45.9
303.15 K | 1109.96 | 1109.78 | 1109.57 | 1109.37 | 1109.06 | 44.4 | 44.7 | 45 | 45.3 | 45.6
308.15 K | 1106.58 | 1106.41 | 1106.19 | 1106 | 1105.69 | 44.1 | 44.4 | 44.7 | 45 | 45.3
313.15 K | 1103.23 | 1103.05 | 1102.83 | 1102.64 | 1102.33 | 43.8 | 44.1 | 44.4 | 44.7 | 45
318.15 K | 1099.89 | 1099.72 | 1099.5 | 1099.3 | 1098.99 | 43.5 | 43.8 | 44.1 | 44.4 | 44.7
323.15 K | 1096.58 | 1096.4 | 1096.18 | 1095.98 | 1095.66 | 43.2 | 43.5 | 43.8 | 44.2 | 44.4
328.15 K | 1093.27 | 1093.1 | 1092.88 | 1092.68 | 1092.36 | 43 | 43.3 | 43.6 | 44 | 44.2
333.15 K | 1090 | 1089.82 | 1089.59 | 1089.4 | 1089.08 | 42.7 | 43.1 | 43.4 | 43.7 | 44
338.15 K | 1086.74 | 1086.56 | 1086.33 | 1086.13 | 1085.81 | 42.4 | 42.8 | 43.1 | 43.4 | 43.7
